Reference: patent US20240415920A1, “PEPTIDE HAVING ACTIVITY OF PREVENTING HAIR LOSS OR PROMOTING HAIR GROWTH, AND USE THEREOF” (CAREGEN CO., LTD., priority 2021, published 2024)

Key:
Assay type in all cases: cell-based, human
p-AKT = assay: Western blotting of phosphorylated AKT in HHFDPC; conditions: peptide 10 nM, 100 nM, 1 μM, 24 hours, FIG. 2
Text: In the HHFDPC treated with the peptide of the present invention, changes in related factors that affect cell proliferation or differentiation were confirmed to determine whether the peptide of the present invention could promote proliferation and differentiation of HHFDPC by increasing them.
First, phosphorylated forms of AKT and ERK, which act as signaling molecules related to the proliferation of HHFDPC, were confirmed through Western blotting. Specifically, HHFDPC as in [Experiment Example 1-1] above was seeded at 4λ10^5 cells/well in a 6-well culture plate, cultured in MSC complete medium (mesenchymal stem cell complete media) for 24 hours, and then the medium was replaced with serum free MSC complete medium and cultured for another 24 hours. Then, the HHFDPC was treated with the peptide of SEQ ID NO: 1 prepared in the Preparation Example at concentrations of 10 nM, 100 nM, and 1 μM, respectively, and cultured at 37° C. for 24 hours. As a positive control, minoxidil was treated at a concentration of 1 μM, and as a negative control, HHFDPC without any treatment was used. Then, Western blotting was performed to detect phosphorylated AKT and phosphorylated ERK. […] After washing again with 0.1% PBS-T (0.1% Tween-20 in PBS) three times for 15 minutes each, p-AKT and p-ERK were detected by treatment with ECL solution (GE Healthcare, USA).

LEF-1 = assay: RT-PCR of LEF-1 expression in HHFDPC; conditions: peptide 10 nM, 100 nM, 1 μM, 24 hours, FIG. 4
Description: (§1) Furthermore, in order to determine whether the β-catenin moves to the nucleus and is s activated to affect cell proliferation and differentiation, whether the expression of LEF-1 and cyclin D1 (cyclin D1), which act as downstream factors, increases with β-catenin activation was confirmed through RT-PCR. Specifically, in the same manner as the previous Western blotting experiment, HHFDPC cells were cultured, treated with the peptides of the Preparation Example of the present invention at concentrations of 10 nM, 100 nM, and 1 μM, respectively, and cultured at 37° C. for 24 hours. After washing the cells with PBS, RNA was isolated by treating them with 300 […] of easy blue (intron, Korea). Then, cDNA was synthesized using a cDNA synthesis kit (enzynomics, Korea) by quantifying it with nano drop, and PCR was performed using primers for LEF-1 and cyclin D1 (base sequences of the primers are listed in Table 2) and PCR premix (enzynomics, Korea). Electrophoresis was performed on a 1.5% agarose gel, and then the mRNA of LEF-1 and cyclin D1 was detected using a band analysis system (Bio-Rad gel image system).

cyclin D1 = assay: RT-PCR of cyclin D1 expression in HHFDPC; conditions: peptide 10 nM, 100 nM, 1 μM, 24 hours, FIG. 4
Description: as §1

Ha3-II = assay: RT-PCR of Ha3-II expression in HHORSC; conditions: peptide 10 nM, 100 nM, 1 μM, 72 hours, FIG. 6
Description: Using the peptide of the present invention consisting of the amino acid sequence of SEQ ID NO: 1 prepared according to Preparation Example above, it was confirmed whether it promotes the activity of outer root sheath cells, a type of cell that forms hair follicles.
Specifically, HHORSC (human hair outer root sheath cell, Sciencell, USA) was seeded in a 6-well culture plate at 4×10^5 cells/well and then cultured in MSC complete medium (mesenchymal stem cell complete media) for 24 hours. Next, the medium was replaced with serum free MSC complete medium and cultured again for 24 hours. Then, the HHORSC was treated with the peptide of Preparation Example consisting of amino acid sequence of SEQ ID NO: 1 at concentrations of 10 nM, 100 nM, and 1 μM, respectively, and cultured at 37° C. for 72 hours. […] Then, CDNA was synthesized using a cDNA synthesis kit (enzynomics, Korea) by quantification using nano drop, and PCR was performed using primers for Ha3-II, Keratin 5, Keratin 14, and Keratin 19 (the base sequences of each primer are shown in Table 3 below) and PCR premix (enzynomics, Korea). Electrophoresis was performed on a 1.5% agarose gel, and the mRNAs of Ha3-II, Keratin 5, Keratin 14, and Keratin 19 were detected using a band analysis system (Bio-Rad gel image system).

MSX2 = assay: RT-PCR of MSX2 expression in HHGMC; conditions: peptide 10 nM, 100 nM, 1 μM, 72 hours, FIG. 7
Description: Using the peptide of the present invention consisting of the amino acid sequence of SEQ ID NO: 1 prepared according to Preparation Example above, it was confirmed whether it promoted the expression of transcription factors related to the activity of germinal matrix cells, a type of cell that forms hair.
Specifically, HHGMC (human hair germinal matrix cell, Sciencell, USA) was seeded in a 6-well culture plate at 4×10^5 cells/well and then cultured in MSC complete medium (mesenchymal stem cell complete media) for 24 hours. Next, the medium was replaced with serum free MSC complete medium and cultured again for 24 hours. Then, the HHGMC was treated with the peptide of SEQ ID NO: 1 prepared in the Preparation Example at concentrations of 10 nM, 100 nM, and 1 μM, respectively, and cultured at 37° C. for 72 hours. As a positive control, EGF was treated at a concentration of 50 nM, and as a negative control, HHGMC without any treatment was used. […] Next, cDNA was synthesized using a cDNA synthesis kit (enzynomics, Korea) by quantification using nano drop, and PCR was performed using primers for MSX2 consisting of base sequences according to Table 4 below and PCR premix (enzynomics, Korea). Electrophoresis was performed on a 1.5% agarose gel, and MSX2 mRNA was detected using a band analysis system (Bio-Rad gel image system).

GCGLFVAAC [peptide of the present invention]
phosphorylation of AKT (p-AKT) compared to the control group not treated with the peptide (p-AKT): phosphorylation was found to be increased
LEF-1 mRNA amount compared to the control group without any treatment (LEF-1): the amount of mRNA increased further
cyclin D1 mRNA amount compared to the control group without any treatment (cyclin D1): the amount of mRNA increased further
Ha3-II mRNA amount compared to the control group without treatment (Ha3-II): the amount of mRNA increased further
MSX2 mRNA amount compared to the untreated control group (MSX2): the amount of mRNA increased further
